Assay results as given in patent US11612607B2, “Fenoldopam topical formulations for treating skin disorders” (TARO PHARMACEUTICAL INDUSTRIES LTD., priority 2016, dated 2023).
“And” between values parts separate entries of the source, which are not always exact repeats. Equal entries are not always repeated.

What was measured:
Format in all cases: in vivo, BALB/c mice
IL-23 [1] = experiment: Second animal study: IL-23 in skin homogenates (ELISA)
Excerpt: (§1) In both studies, typical features of psoriasis, namely erythema, scaling, and skin thickness, were induced by the application of 5% w/w imiquimod (IMQ) cream on the dorsal skin of BALB/c mice over a period of 6 consecutive days. Animals that developed psoriasis-like symptoms were used for studying the efficacy of the fenoldopam topical compositions. In the fenoldopam-treated groups, the animals received imiquimod only for the first two days. From the third day of the study, the animals received imiquimod and fenoldopam for the next four days. First Animal Study: The different treatment groups of mice used in the first animal study were as following: the SHAM group in the study represents mice which were shaven on the dorsal side without any treatment; negative control group represents the typical psoriatic model induced by imiquimod 5% (IMQ); positive control group represents the mice induced with psoriasis by imiquimod and then treated with the marketed steroid betamethasone valerate (IMQ BMV); and treatment groups represent the mice induced with psoriasis by imiquimod and then treated with a topical dose of 1 mg/cm^2 fenoldopam using different compositions of fenoldopam, such as solution (IMQ FD), water-washable ointment (IMQ WB 45/55), or anhydrous gel (IMQ AG BHT) compositions.
The second animal study was conducted in order to test additional topical compositions of fenoldopam with different strengths (0.01%, 0.1% and 1% of fenoldopam), as well as the effect of systemic administration of fenoldopam. The different groups of mice used in the second animal study were as following: the SHAM group in the study represents mice which were shaven on the dorsal side without any treatment; negative control group represents the typical psoriatic model induced by imiquimod 5% (IMQ); positive control group represents the mice induced with psoriasis by imiquimod and then treated with the marketed steroid betamethasone valerate (IMQ BMV); and treatment groups represent the mice induced with psoriasis by imiquimod and then treated with a topical dose of various compositions of fenoldopam: water-washable base (IMQ_WB45/55-0.01%, IMQ_WB45/55-0.1%, IMQ_WB45/55-1% or IMQ_WB45/55_1% No citric acid), or oleaginous ointment composition (IMQ_OB 0.01%, IMQ_OB 0.1% or IMQ_OB […]). An additional group of mice received systemic Fenoldopam by intraperitoneal injection (IMQ_FD_IP).
(§2) The skin homogenates obtained from mice of the different groups were analyzed using ELISA for quantification of IL-17, IL-23, TNF-α, and IL-22 levels, as the selected interleukins are the typical inflammatory markers of psoriasis.

IL-17 [2] = experiment: Second animal study: IL-17 in skin homogenates (ELISA)
Excerpt: as §1
(§3) The second animal study was conducted in order to test additional topical compositions of fenoldopam with different strengths (0.01%, 0.1% and 1% of fenoldopam), as well as the effect of systemic administration of fenoldopam. […]
as §2

IL-17 [3] = experiment: First animal study: IL-17 in skin homogenates (ELISA)
Excerpt: as §1, with “The effect of topical compositions on the treatment of psoriasis has been tested in two animal studies. In both” for “In both”
(§4) An IMQ-induced psoriasis model reproduces biochemical and histopathological parameters characteristic of human psoriatic lesions. Topical application of the IMQ cream increased levels of cytokines such as IL-23, TNF-α, and IL-17 in the treated skin tissues. The skin homogenates obtained from mice of different groups were analyzed using ELISA for quantification of IL-17, IL-23, and TNF-α, levels as the selected interleukins are the typical inflammatory markers of psoriasis. […] The effect of fenoldopam was as effective as the reference topical treatment with the marketed steroid.

[4] = test system: IMQ-induced psoriasis model; experiment: First animal study: IMQ-induced psoriasis, phenotype and PASI scoring
Excerpt: (§5) The effect of topical compositions on the treatment of psoriasis has been tested in two animal studies. In both studies, typical features of psoriasis, namely erythema, scaling, and skin thickness, were induced by the application of 5% w/w imiquimod (IMQ) cream on the dorsal skin of BALB/c mice over a period of 6 consecutive days. Animals that developed psoriasis-like symptoms were used for studying the efficacy of the fenoldopam topical compositions. In the fenoldopam-treated groups, the animals received imiquimod only for the first two days. From the third day of the study, the animals received imiquimod and fenoldopam for the next four days. […]
Psoriatic area and severity index (PASI) scoring has been analyzed to determine the efficacy of the fenoldopam compositions of the present invention with appropriate controls as part of the study. FIG. 11 depicts PASI scoring including body weight, erythema, scaling, and skin thickness determined during the study. […]

IL-22 = experiment: Second animal study: IL-22 in skin homogenates (ELISA)
Excerpt: as §1, §3, §2

[5] = test system: IMQ-induced psoriasis model; experiment: Second animal study: IMQ-induced psoriasis, phenotype and PASI scoring; settings: for Psoriasis symptoms (phenotypic images: erythema, scaling, skin thickness): compared to negative control
Excerpt: as §1, §3

[6] = test system: IMQ-induced psoriasis model; experiment: Second animal study: histopathology (H&E) of skin; settings: skin collected on the 7th day
Excerpt: as §1, with “BHT) compositions. […]” for “BHT) compositions.”

IL-23 [7] = experiment: First animal study: IL-23 in skin homogenates (ELISA)
Excerpt: as §1, with “The effect of topical compositions on the treatment of psoriasis has been tested in two animal studies. In both” for “In both”
as §4

TNF-α [8] = experiment: First animal study: TNF-α in skin homogenates (ELISA)
Excerpt: as §1, with “The effect of topical compositions on the treatment of psoriasis has been tested in two animal studies. In both” for “In both”
as §4

TNF-α [9] = experiment: Second animal study: TNF-α in skin homogenates (ELISA)
Excerpt: as §1, §3, §2

[10] = test system: IMQ-induced psoriasis model; experiment: First animal study: histopathology (H&E) of dorsal skin; settings: vs. IMQ-treated group
Excerpt: as §5

## CCCCC(=O)O[C@]1(C(=O)CO)[C@@H](C)C[C@H]2[C@@H]3CCC4=CC(=O)C=C[C@]4(C)[C@@]3(F)[C@@H](O)C[C@@]21C [BMV, betamethasone valerate]
IL-23 [1]; listed as IMQ_BMV
  Decline in IL-23 levels compared to the negative control: decline in IL-23 levels
  Fold difference in IL-23 levels (↓, vs. IMQ): 1.57 ↓ fold
IL-23 [1]; listed as positive control
  Fold difference in IL-23 levels (↓, vs. IMQ): 1.57 fold
IL-17 [2]; listed as IMQ_BMV
  Fold difference in IL-17 levels (↓, vs. IMQ): 1.43 ↓ fold
IL-17 [2]; listed as positive control
  Fold difference in IL-17 levels (↓, vs. IMQ): 1.43 fold
IL-17 [3]; first animal study
  Decrease in IL-17 levels in comparison with the IMQ group: 2.74 fold
IL-17 [3]; vs. IMQ group
  Level of IL-17: inhibited
[4]; IMQ-treated mice, topical treatment for four days, 1 mg/cm^2 fenoldopam
  Psoriatic symptoms (phenotypic images of dorsal skin): amelioration of psoriatic symptoms
[4]; scale of 0-4, vs. negative control
  PASI scores over the treatment period: declines in PASI scores
IL-22; listed as IMQ_BMV
  Fold difference in IL-22 levels (↓, vs. IMQ): 1.55 ↓ fold
IL-22; listed as positive control
  Fold difference in IL-22 levels (↓, vs. IMQ): 1.55 fold
[5]
  Psoriasis symptoms (phenotypic images: erythema, scaling, skin thickness): remission of the psoriasis symptoms
[5]; listed as IMQ_BMV
  Psoriasis symptoms (phenotypic images: erythema, scaling, skin thickness): amelioration of psoriatic symptoms
[6]
  Histopathology (H&E): psoriatic features: ameliorated all of the above-mentioned parameters
IL-23 [7]; first animal study
  Decrease in IL-23 levels in comparison with the IMQ group: 2.02 fold
IL-23 [7]; vs. IMQ group
  Level of IL-23: inhibited
TNF-α [8]; first animal study
  Decrease in TNF-α levels in comparison with the IMQ group: 2.75 fold
TNF-α [8]; vs. IMQ group
  Level of TNF-α: inhibited
TNF-α [9]; listed as IMQ_BMV
  Fold difference in TNF-α levels (↓, vs. IMQ): 2.21 ↓ fold
TNF-α [9]; listed as positive control
  Fold difference in TNF-α levels (↓, vs. IMQ): 2.21 fold
[10]
  Histopathology (H&E): psoriatic features: decline in the intensity of psoriatic features

## CC(C)Cn1cnc2c(N)nc3ccccc3c21 [IMQ, imiquimod]
IL-23 [1]
  Fold difference in IL-23 levels (↑, vs. Sham): 1.55 fold and 1.55 ↑ fold
IL-17 [2]
  Fold difference in IL-17 levels (↑, vs. Sham): 1.63 fold and 1.63 ↑ fold
IL-17 [3]; first animal study
  Elevation of IL-17 levels compared to the SHAM group: 5 fold
IL-22
  Fold difference in IL-22 levels (↑, vs. Sham): 1.36 fold and 1.36 ↑ fold
[5]
  PASI score for erythema, scaling, and thickness on the 6th day: about 3
IL-23 [7]; first animal study
  Increase of IL-23 levels compared to SHAM group: 2.30 fold
TNF-α [8]; first animal study
  Increase in the TNF-α level compared to the SHAM group: 8.42 fold
TNF-α [9]
  Fold difference in TNF-α levels (↑, vs. Sham): 2.08 fold and 2.08 ↑ fold
